Consider 1 molecule from patent publication US12194198B2, “High strength porous materials for controlled release” (Access Vascular, Inc., priority 2018, dated 2025).

The structures appear in SMILES notation.

Data set [1] is described as follows: Chlorhexidine free base saturation in methanol. In kind it is physicochemical. The note with it: CHX/methanol solutions. An excerpt:
Solution was made with […] chlorhexidine free base (CHX) in methanol. CHX/methanol solutions appeared to reach saturation around 1000 ppm. Serial dilutions were made from the solution, where the UV-Vis would become overloaded when concentrations were above 200 ppm. In order to avoid overloading the UV-Vis, concentrations below 100 ppm were used to collect absorbance values. FIG. 8 and Table 6 show the absorbance data collected from the chlorhexidine free base standards.

Another data set deals with P. aeruginosa. The conditions noted are these: cited from earlier work.
The test system of a further data set is A. baumannii. The note with it: cited from earlier work.

For the molecule `[H]/N=C(\N/C(=N/[H])NCCCCCCNC(=N)NC(=N)Nc1ccc(Cl)cc1)Nc1ccc(Cl)cc1` [chlorhexidine], the “saturation concentration in methanol” value in data set [1] was “around 1000 ppm”. In addition, the “largest known minimum bactericidal concentration (MBC)” value in the data set with P. aeruginosa was 128 µg/mL. Also, in the data set with A. baumannii, the “largest known minimum inhibitory concentration (MIC)” value was 64 µg/mL.
